Measurements published in patent US20080033026A1, “Antimicrobial compositions, methods and systems” (priority 2006, published 2008).

Legend:
Type in all cases: cell-based
[1] = system: Candida albicans (ATCC 10231); experiment: MIC and MBC determination (broth dilution)
Method: (§1) The determination of the MIC and MBC of 9-decenoic acid conformed to the procedure printed in the Federal Register, June 1994 and the present NCCLS M11-A4 protocol. Challenge organisms were prepared as follows. The MIC and MBC of 9-decenoic acid and the methyl ester of 9-decenoic acid were determined for the following challenge organisms: Staphylococcus aureus (ATCC 6538), Pseudomonas aeruginosa (ATCC 15442), Staphylococcus epidermidis (ATCC 12228), Klebsiella pneumoniae (ATCC 4352), Escherichia coli 0157:H7 (ATCC 43895) and Candida albicans (ATCC 10231). Stock cultures of each organism were transferred onto suitable culture media, Mueller-Hinton Agar (MHA) plates, and incubated for 24 hours (+2 hours) at 37° C. (+2° C.). On the day of the test, the top of at least three to five well-isolated colonies were transferred via wire loop to a tube containing 4 to 5 ml of Trypticase Soy Broth (TSB). The TSB culture was incubated for 2 to 6 hours and turbidity was adjusted with sterile saline to achieve the turbidity of a McFarland 0.5 Standard.
(§2) The concentrated 9-decenoic acid (97%) was diluted in Mueller-Hinton Broth (MHB) to yield a 25,000 ppm stock solution of the 9-decenoic acid. For each organism, 12 dilutions of the 9-decenoic acid in MHB were prepared ranging from 0.25% to 0.00049%. The test solution of the methyl ester of 9-decenoic acid was formulated in the same manner.
(§3) A 2-ml aliquot of appropriately diluted 9-decenoic acid solution or methyl ester of 9-decenoic acid was placed in each tube. Each tube was inoculated with 0.05 ml of a 1:10 dilution of one challenge organism. Tubes were incubated at 37° C. (±2° C.) for 20-24 hours and observed for microbial growth visually and by spectrophotometer. […] (±2° C.) for 20-24 hours and visually observed for growth.
(§4) Controls were run for sterility, viability and organism confirmation. It was determined that all cultures were viable and pure.
(§5) The MBC was defined as the concentration of 9-decenoic acid or the methyl ester of 9-decenoic acid that completely eradicated viable organisms from the test system.

[2] = system: Escherichia coli 0157:H7 (ATCC 43895); experiment: MIC and MBC determination (broth dilution)
Method: as §1, §2, §3, §4, §5

[3] = system: Klebsiella pneumoniae (ATCC 4352); experiment: MIC and MBC determination (broth dilution); details: Mueller-Hinton Broth, 20-24 h, 37° C.
Method: as §1, §2, §3, §4, §5

[4] = system: Pseudomonas aeruginosa (ATCC 15442); experiment: MIC and MBC determination (broth dilution); details: Mueller-Hinton Broth, 20-24 h, 37° C.
Method: as §1, §2, §3, §4, §5

[5] = system: Staphylococcus epidermidis (ATCC 12228); experiment: MIC and MBC determination (broth dilution); details: subculture on TSA
Method: as §1, §2, §3, §4, §5

all organisms = experiment: Time kill test, all organisms of Example 2; details: even after 10 minutes, all concentrations (0.01, 0.05 and 0.1%)
Method: The assessment of efficacy of 9-decenoic acid against a spectrum of microorganisms was determined using the American Society for Testing and Materials (ASTM) procedure entitled “Standard Test Method for the Assessment of Microbiocidal Activity of Test Materials Using a Time-Kill Procedure,” October 1998. This procedure incorporates the recommendations described in the “Manual of Clinical Microbiology,” 5th ed., edited by A. B. Balows et al., ASM, Washington, and is directed by the Federal Register, June 1994.
Challenge organisms were prepared as follows. Cultures of the following organisms were obtained: Staphylococcus aureus (ATCC 6538), Pseudomonas aeruginosa (ATCC 15442), Staphylococcus epidermidis (ATCC 12228), Klebsiella pneumoniae (ATCC 4352), Escherichia coli 0157:H7 (ATCC 43895) and Candida albicans (ATCC 10231). The stock cultures were transferred to sterile tubes and sterile tryptic soy broth (TSB) was added to the cultures. […]
Concentrated 9-decenoic acid (97%) was diluted in filter sterilized isopropanol to yield a 25,000 ppm stock solution. […] The pH was determined for each dilution; pH values ranged from 4.4-4.1. […]
At each exposure sample time, a 1.0 ml aliquot of the inoculated 9-decenoic acid suspension was transferred to 9.0 ml of D/E Neutralizing Broth. […] The plates were enumerated, recorded and log kill determined for each time point. […]

[6] = Mueller-Hinton Broth, 20-24 h, 37° C.

C=CCCCCCCCC(=O)OC [Methyl ester of 9-decenoic acid, methyl ester of 9-decenoic acid]
MIC [1, 6]: 0.0156% | MBC ([1]; subculture on TSA): 0.0156% | MIC [2, 6]: 0.125% | MBC ([2]; subculture on TSA): 0.125% | MIC [3]: 0.0625% | MIC [4]: 0.0625% | MBC [5]: 0.25% | log reduction (all organisms): < 1 log
